Experiments:
HDAC6 = test system: HDAC6; set-up: method as in Fan, Huang, Liou, & Yang, 2018; conditions: ref Fan, Huang, Liou, & Yang, 2018; cited from earlier work
HDAC 1–11 = experiment: HDAC enzymatic assay panel (IC50 heat maps); format: biochemical; conditions: HDAC 1–11, recombinant human enzymes
Description: Data are expressed as mean ± SEM.
The percentages of enzyme activity (relative to DMSO controls) and IC50 values were calculated using the GraphPad Prism 4 program based on a sigmoidal dose-response equation.

SMILES	acetylation of Hsp90 (HDAC6)	ubiquitination of phosphorylated tau (HDAC6)	selectivity among HDAC isoforms (heat maps of IC50 values) (HDAC 1–11)
O=C(NO)c1ccc(CNc2cccc3cccnc23)cc1 [MPT0G211]	increased	increased	
Cc1[nH]c2ccccc2c1CCNCc1ccc(/C=C/C(=O)NO)cc1 [panobinostat]			no selectivity among HDAC isoforms

— PMC6974726, “Acetylation changes tau interactome to degrade tau in Alzheimer’s disease animal and organoid models” (Aging Cell, 2019)
